Holding throughout (assay): Antimicrobial activity, Heart Infusion Agar Dilution Method (pH 7.2)
Holding throughout (format): cell-based

The subject of assay [1] is Escherichia coli GN2411-5. The text has this: (§1) Antimicrobial activities of the compound obtained in Reference Example 9 are as follows. Heart Infusion Agar Dilution Method (pH 7.2) is used.
Assay [2] concerns Proteus morganii KY 4298.
Excerpt: as §1

Assay [3] has as its system Proteus rettgeri KY 4289. The conditions noted are these: Providencia rettgeri, KY4289.
Excerpt: as §1

Assay [4] deals with Proteus vulgaris 6897.
Excerpt: as §1

Assay [5] has as its system Pseudomonas aeruginosa 145.
Excerpt: as §1

For assay [6], the system named is Pseudomonas putida 264.
Excerpt: as §1

Assay [7] deals with Serratia marcescens T-55. The conditions noted are these: T55.
Excerpt: as §1

For assay [8], the system named is Staphylococcus aureus Smith.
Excerpt: as §1

For assay [9], the system named is Staphylococcus epidermidis.
Excerpt: as §1

Assay [10] relates to Escherichia coli NIHJC-2. Particulars: NIHJC2.
The subject of assay [11] is Escherichia coli Juhl.
In assay [12] the test system is Klebsiella pneumoniae 8045.
Assay [13] concerns Klebsiella pneumoniae Y-60. The conditions noted are these: Y60.
The test system of assay [14] is Proteus mirabilis 1287.
Assay [15] has as its system Pseudomonas aeruginosa #1.
Excerpt: as §1

For assay [16], the system named is Serratia marcescens T-26.
Assay [17] relates to Staphylococcus aureus 209-P.
Excerpt: as §1

[18] abbreviates: Morganella morganii, KY4298, read-out: MIC.

In brackets after ≈: the same amount, converted by molar mass. Where two headings read alike, the source gives them in different places. Bounds are passed on as bounds.

As usually defined, the MIC is the least concentration at which growth counts as inhibited.

Turning to `CO/N=C(\C(=O)N[C@@H]1C(=O)N2C(C(=O)O)=C[C@@H](O)C[C@H]12)c1csc(N)n1` (relative stereo) [B, (±)-cis-7β-[2-(2-amino-4-thiazolyl)-2-syn-methoxyiminoacetamido]-4α-hydroxy-1-azabicyclo[4,2,0]oct-2-en-8-on-2-carboxylic acid], the MIC was 0.02 µg/mL (≈ 0.0524 µM) in assay [1]; 0.05 µg/mL (≈ 0.131 µM) in assay [2] (setting [18]); < 0.01 µg/mL in assay [3]; 0.1 µg/mL (≈ 0.262 µM) in assay [4]; 12.5 µg/mL (≈ 32.8 µM) in [5] (read-out: MIC); 0.02 µg/mL (≈ 0.0524 µM) in assay [6] (read-out: MIC). Also, the MIC in assay [7] amounted to 0.02 µg/mL (≈ 0.0524 µM); in [8], 25 µg/mL (≈ 65.6 µM); in assay [9] (read-out: MIC), 50 µg/mL (≈ 131 µM); in assay [10] it was 0.05 µg/mL (≈ 0.131 µM); in assay [11] it was 0.05 µg/mL (≈ 0.131 µM); in [12], 0.02 µg/mL (≈ 0.0524 µM). Further, the values for the MIC in assay [13] and in [14] were 0.02 µg/mL (≈ 0.0524 µM) and 0.1 µg/mL (≈ 0.262 µM), respectively.

Turning to `N[C@@H](C(=O)NC1C(=O)N2C(C(=O)O)=CC(O)CC12)c1ccccc1` (stereo in doubt) [C, cis-7β-[(R)-2-phenylglycinamido]-4α-hydroxy-1-azabicyclo[4,2,0]oct-2-en-8-on-2-carboxylic acid], the MIC in [2] was 12.5 µg/mL (≈ 37.7 µM); in assay [15], > 100 µg/mL; in [5] it was > 100 µg/mL; in [6], 12.5 µg/mL (≈ 37.7 µM); in assay [9], 12.5 µg/mL (≈ 37.7 µM); in [16] it was 100 µg/mL (≈ 302 µM).

Turning to `CO/N=C(\C(=O)N[C@@H]1C(=O)N2C(C(=O)O)=C[C@@H](O)C[C@H]12)c1csc(N)n1` [A, (4S,6R,7S)-7-[2-(2-amino-4-thiazolyl)-2-syn-methoxyiminoacetamido]-4-hydroxy-1-azabicyclo[4,2,0]oct-2-en-8-on-2-carboxylic acid], the MIC in assay [1] was ≤ 0.01 µg/mL; in assay [2] (setting [18]), ≤ 0.01 µg/mL; in assay [3], ≤ 0.01 µg/mL; in [4] it was ≤ 0.01 µg/mL; in assay [5] (read-out: MIC), 6.25 µg/mL (≈ 16.4 µM); in assay [6] (read-out: MIC), 0.02 µg/mL (≈ 0.0524 µM). Besides, the MIC is 0.05 µg/mL (≈ 0.131 µM) in assay [7]; 12.5 µg/mL (≈ 32.8 µM) in assay [8]; 25 µg/mL (≈ 65.6 µM) in assay [9] (read-out: MIC); 0.02 µg/mL (≈ 0.0524 µM) in [10]; ≤ 0.01 µg/mL in [11]; ≤ 0.01 µg/mL in [12]. In addition, the MIC is ≤ 0.01 µg/mL in assay [13] and 0.05 µg/mL (≈ 0.131 µM) in assay [14].

Regarding `Cc1nnc(SCC2=C(C(=O)O)N3C(=O)[C@@H](NC(=O)Cn4cnnn4)[C@H]3SC2)s1` [Cefazolin, reference compound], the MIC was 0.78 µg/mL (≈ 1.72 µM) in assay [1]; > 100 µg/mL in assay [2] (setting [18]); 25 µg/mL (≈ 55 µM) in assay [3]; 25 µg/mL (≈ 55 µM) in assay [4]; > 100 µg/mL in assay [15] (read-out: MIC); > 100 µg/mL in assay [5] (read-out: MIC). Also, the MIC in assay [6] (read-out: MIC) was > 100 µg/mL; in [7], > 100 µg/mL; in [17], 0.02 µg/mL (≈ 0.044 µM); in [8], 0.78 µg/mL (≈ 1.72 µM); in assay [9] (read-out: MIC), 0.78 µg/mL (≈ 1.72 µM); in assay [13], 3.12 µg/mL (≈ 6.86 µM). In addition, the MIC in [16] (T26, read-out: MIC) is > 100 µg/mL; in [14] it was 12.5 µg/mL (≈ 27.5 µM).

Values taken from patent US4302540A, “Process of producing optically active cephalosporin analogs by enzyme selective deacylation” (Kyowa Hakko Kogyo Co., Ltd., priority 1979, dated 1981).
